Active and inactive are the calls of the source. The rule behind the calls is not given here.
System: CCRIS mutagenicity, Ames/micronucleus/aberration tests
Assay: CCRIS mutagenicity studies

Nc1ccc2c(c1)C(=O)c1ccccc1C2=O
mutagenic call (End Point: IN VITRO CHROMOSOMAL ABERRATIONS, Test System: CHL CELLS, Metabolic Activation: RAT, LIVER, S-9, SODIUM PHENOBARBITAL AND 5,6-BENZOFLAVONE): inactive; negative
mutagenic call (Test System: AMES SALMONELLA TYPHIMURIUM, Strain/Indicator: TA98, Metabolic Activation: HAMSTER, LIVER, S-9, AROCLOR 1254, Method: STANDARD PLATE): active; positive
mutagenic call (Test System: AMES SALMONELLA TYPHIMURIUM, Strain/Indicator: TA98, Metabolic Activation: HAMSTER, LIVER, S-9, Method: STANDARD PLATE): active; positive
mutagenic call (Test System: AMES SALMONELLA TYPHIMURIUM, Strain/Indicator: TA98, Metabolic Activation: MOUSE, LIVER, S-9, AROCLOR 1254, Method: STANDARD PLATE): active; positive
mutagenic call (Test System: AMES SALMONELLA TYPHIMURIUM, Strain/Indicator: TA98, Metabolic Activation: MOUSE, LIVER, S-9, Method: STANDARD PLATE): active; positive
mutagenic call (Test System: AMES SALMONELLA TYPHIMURIUM, Strain/Indicator: TA98, Metabolic Activation: NONE, Method: STANDARD PLATE): inactive; negative
mutagenic call (Test System: AMES SALMONELLA TYPHIMURIUM, Strain/Indicator: TA98, Metabolic Activation: RAT, LIVER, S-9, AROCLOR 1254, Method: STANDARD PLATE): active; positive
mutagenic call (Test System: AMES SALMONELLA TYPHIMURIUM, Strain/Indicator: TA98, Metabolic Activation: RAT, LIVER, S-9, Method: STANDARD PLATE): active; positive
mutagenic call (Test System: AMES SALMONELLA TYPHIMURIUM, Strain/Indicator: TA100, Metabolic Activation: HAMSTER, LIVER, S-9, AROCLOR 1254, Method: STANDARD PLATE): active; positive
mutagenic call (Test System: AMES SALMONELLA TYPHIMURIUM, Strain/Indicator: TA100, Metabolic Activation: HAMSTER, LIVER, S-9, Method: STANDARD PLATE): active; positive
mutagenic call (Test System: AMES SALMONELLA TYPHIMURIUM, Strain/Indicator: TA100, Metabolic Activation: MOUSE, LIVER, S-9, AROCLOR 1254, Method: STANDARD PLATE): active; positive
mutagenic call (Test System: AMES SALMONELLA TYPHIMURIUM, Strain/Indicator: TA100, Metabolic Activation: NONE, Method: STANDARD PLATE): inactive; negative
mutagenic call (Test System: AMES SALMONELLA TYPHIMURIUM, Strain/Indicator: TA100, Metabolic Activation: RAT, LIVER, S-9, AROCLOR 1254, Method: STANDARD PLATE): active; positive
mutagenic call (Test System: AMES SALMONELLA TYPHIMURIUM, Strain/Indicator: TA1535, Metabolic Activation: HAMSTER, LIVER, S-9, Method: STANDARD PLATE): inactive; negative
mutagenic call (Test System: AMES SALMONELLA TYPHIMURIUM, Strain/Indicator: TA1535, Metabolic Activation: MOUSE, LIVER, S-9, AROCLOR 1254, Method: STANDARD PLATE): inactive; negative
mutagenic call (Test System: AMES SALMONELLA TYPHIMURIUM, Strain/Indicator: TA1535, Metabolic Activation: MOUSE, LIVER, S-9, Method: STANDARD PLATE): inactive; negative
mutagenic call (Test System: AMES SALMONELLA TYPHIMURIUM, Strain/Indicator: TA1535, Metabolic Activation: NONE, Method: STANDARD PLATE): inactive; negative
mutagenic call (Test System: AMES SALMONELLA TYPHIMURIUM, Strain/Indicator: TA1537, Metabolic Activation: HAMSTER, LIVER, S-9, AROCLOR 1254, Method: STANDARD PLATE): active; positive
mutagenic call (Test System: AMES SALMONELLA TYPHIMURIUM, Strain/Indicator: TA1537, Metabolic Activation: HAMSTER, LIVER, S-9, Method: STANDARD PLATE): active; positive
mutagenic call (Test System: AMES SALMONELLA TYPHIMURIUM, Strain/Indicator: TA1537, Metabolic Activation: MOUSE, LIVER, S-9, AROCLOR 1254, Method: STANDARD PLATE): active; positive
mutagenic call (Test System: AMES SALMONELLA TYPHIMURIUM, Strain/Indicator: TA1537, Metabolic Activation: MOUSE, LIVER, S-9, Method: STANDARD PLATE): active; positive
mutagenic call (Test System: AMES SALMONELLA TYPHIMURIUM, Strain/Indicator: TA1537, Metabolic Activation: RAT, LIVER, S-9, AROCLOR 1254, Method: STANDARD PLATE): active; positive
mutagenic call (Test System: AMES SALMONELLA TYPHIMURIUM, Strain/Indicator: TA1537, Metabolic Activation: RAT, LIVER, S-9, Method: STANDARD PLATE): active; positive
mutagenic call (Test System: AMES SALMONELLA TYPHIMURIUM, Strain/Indicator: TA1538, Metabolic Activation: HAMSTER, LIVER, S-9, AROCLOR 1254, Method: STANDARD PLATE): active; positive
mutagenic call (Test System: AMES SALMONELLA TYPHIMURIUM, Strain/Indicator: TA1538, Metabolic Activation: HAMSTER, LIVER, S-9, Method: STANDARD PLATE): active; positive
mutagenic call (Test System: AMES SALMONELLA TYPHIMURIUM, Strain/Indicator: TA1538, Metabolic Activation: MOUSE, LIVER, S-9, AROCLOR 1254, Method: STANDARD PLATE): active; positive
mutagenic call (Test System: AMES SALMONELLA TYPHIMURIUM, Strain/Indicator: TA1538, Metabolic Activation: MOUSE, LIVER, S-9, Method: STANDARD PLATE): active; positive
mutagenic call (Test System: AMES SALMONELLA TYPHIMURIUM, Strain/Indicator: TA1538, Metabolic Activation: NONE, Method: STANDARD PLATE): inactive; negative
mutagenic call (Test System: AMES SALMONELLA TYPHIMURIUM, Strain/Indicator: TA1538, Metabolic Activation: RAT, LIVER, S-9, AROCLOR 1254, Method: STANDARD PLATE): active; positive
mutagenic call (Test System: AMES SALMONELLA TYPHIMURIUM, Strain/Indicator: TA1538, Metabolic Activation: RAT, LIVER, S-9, Method: STANDARD PLATE): active; positive
mutagenic call (Test System: E. COLI, Strain/Indicator: WP2 UVRA, Metabolic Activation: HAMSTER, LIVER, S-9, Method: STANDARD PLATE): inactive; negative
mutagenic call (Test System: E. COLI, Strain/Indicator: WP2 UVRA, Metabolic Activation: MOUSE, LIVER, S-9, Method: STANDARD PLATE): inactive; negative
mutagenic call (Test System: E. COLI, Strain/Indicator: WP2 UVRA, Metabolic Activation: NONE, Method: STANDARD PLATE): inactive; negative
mutagenic call (Test System: E. COLI, Strain/Indicator: WP2 UVRA, Metabolic Activation: RAT, LIVER, S-9, Method: STANDARD PLATE): inactive; negative
mutagenic call (Test System: MOUSE LYMPHOMA, Strain/Indicator: L5178Y (TK+/TK-), Metabolic Activation: NONE, Method: SUSPENSION/PLATE): active; positive

O=S(=O)(O)c1cc(S(=O)(=O)O)c2cc(O)ccc2c1
mutagenic call (Test System: AMES SALMONELLA TYPHIMURIUM, Strain/Indicator: TA98, Metabolic Activation: NONE, Method: PREINCUBATION): inactive; negative
mutagenic call (Test System: AMES SALMONELLA TYPHIMURIUM, Strain/Indicator: TA98, Metabolic Activation: RAT LIVER S-9, PHENOBARBITAL AND BETA-NAPHTHOFLAVONE, Method: PREINCUBATION): inactive; negative
mutagenic call (Test System: AMES SALMONELLA TYPHIMURIUM, Strain/Indicator: TA98, Metabolic Activation: RAT, LIVER, S-9, PHENOBARBITAL, Method: PREINCUBATION): inactive; negative
mutagenic call (Test System: AMES SALMONELLA TYPHIMURIUM, Strain/Indicator: TA100, Metabolic Activation: NONE, Method: PREINCUBATION): inactive; negative
mutagenic call (Test System: AMES SALMONELLA TYPHIMURIUM, Strain/Indicator: TA100, Metabolic Activation: RAT LIVER S-9, PHENOBARBITAL AND BETA-NAPHTHOFLAVONE, Method: PREINCUBATION): inactive; negative
mutagenic call (Test System: AMES SALMONELLA TYPHIMURIUM, Strain/Indicator: TA100, Metabolic Activation: RAT, LIVER, S-9, PHENOBARBITAL, Method: PREINCUBATION): inactive; negative
mutagenic call (Test System: AMES SALMONELLA TYPHIMURIUM, Strain/Indicator: TA1535, Metabolic Activation: NONE, Method: PREINCUBATION): inactive; negative
mutagenic call (Test System: AMES SALMONELLA TYPHIMURIUM, Strain/Indicator: TA1535, Metabolic Activation: RAT LIVER S-9, PHENOBARBITAL AND BETA-NAPHTHOFLAVONE, Method: PREINCUBATION): inactive; negative
mutagenic call (Test System: AMES SALMONELLA TYPHIMURIUM, Strain/Indicator: TA1537, Metabolic Activation: NONE, Method: PREINCUBATION): inactive; negative
mutagenic call (Test System: AMES SALMONELLA TYPHIMURIUM, Strain/Indicator: TA1537, Metabolic Activation: RAT LIVER S-9, PHENOBARBITAL AND BETA-NAPHTHOFLAVONE, Method: PREINCUBATION): inactive; negative
mutagenic call (Test System: AMES SALMONELLA TYPHIMURIUM, Strain/Indicator: TA1538, Metabolic Activation: NONE, Method: PREINCUBATION): inactive; negative
mutagenic call (Test System: AMES SALMONELLA TYPHIMURIUM, Strain/Indicator: TA1538, Metabolic Activation: RAT LIVER S-9, PHENOBARBITAL AND BETA-NAPHTHOFLAVONE, Method: PREINCUBATION): inactive; negative
mutagenic call (Test System: E.COLI, Strain/Indicator: WP2UVRA, Metabolic Activation: NONE, Method: PREINCUBATION): inactive; negative
mutagenic call (Test System: E.COLI, Strain/Indicator: WP2UVRA, Metabolic Activation: RAT LIVER S-9, PHENOBARBITAL AND BETA-NAPHTHOFLAVONE, Method: PREINCUBATION): inactive; negative
